Laboratory results as given in paper PMC6187366, “Highly Sensitive Label-Free Detection of Small Molecules with an Optofluidic Microbubble Resonator” (Micromachines, 2018).

Target: Streptavidin (SA) (Streptomyces avidinii, UniProt P22629)
Assay: label-free optofluidic microbubble resonator, kinetic kon/koff global Langmuir fit
Assay type: binding
Conditions: read-out: ka (M)^-1 (converted)
Excerpt: label-free optofluidic microbubble resonator, kinetic kon/koff global Langmuir fit on Streptavidin (SA)

Sequence of Streptavidin (SA) (P22629 25-183): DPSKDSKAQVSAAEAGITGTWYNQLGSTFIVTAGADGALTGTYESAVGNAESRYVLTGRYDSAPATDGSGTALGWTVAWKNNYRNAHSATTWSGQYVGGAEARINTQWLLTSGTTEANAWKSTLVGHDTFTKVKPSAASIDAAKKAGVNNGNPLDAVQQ

Structure (SMILES): C=CCc1ccc(O)c(-c2cc(CC=C)ccc2O)c1 [magnolol]
- Kd: 2.13e-11 M
